Measured values reported in paper PMC12169104, “Towards the development of supramolecular self-associating amphiphiles as antibiofilm agents against Pseudomonas aeruginosa and Candida albicans biofilms” (Journal of Materials Chemistry. B, 2025).
Where two headings read alike, the source gives them in different places.

What was measured:
[1] = Bi-directional permeability in Caco-2 cell line; format: in vitro ADME; conditions: human; for recovery at 2 h, 5 µM: Caco-2, pH 7.4, SSA recovered from the assay after 2 hours
Procedure: Bi-directional Permeability in Caco-2 Cell Line:
The bi-directional permeability in Caco-2 cell lines was determined by seeding cells onto an HTS Transwell plate. Cells were cultivated for 14-18 days in a cell culture incubator at 37°C, 5% CO2, 95% relative humidity. Cell culture medium was replaced every other day. To assess monolayer integrity the transepithelial electrical resistance (TEER) across the monolayer was measured using Millicell Epithelial volt-ohm meter prior to assay and Lucifer yellow (LY) fluorescence measurement post- […]
Test compound was prepared in DMSO and diluted in Hank’s Balanced Saline Solution (HBSS, pH 7.4) to a final concentration of 5 µM. Compound was added to the donor compartment of the transwell plate for both apical to basolateral (A>B) and basolateral to apical (B>A) measurements, with blank HBSS being added to the receiver compartment. The transwell plate was then incubated at 37°C, 5% […]
Samples were shaken at T=0 and T=2 hours to determine the concentration of initial donor sample, and the concentration of receiver and donor wells post-incubation, respectively. The samples were quenched with solvent containing internal standard (IS). The supernatant was mixed with an appropriate volume of ultra-pure water before LC-MS/MS analysis. […]
coupled to a Sciex 5500+ (AB Inc., Illinois). Separation of compounds was achieved using an XSelect HSS T3 XP (2.5µm,2.1x50mm) (Waters Ltd., Wilmslow) column at a temperature of 40°C. A binary mobile phase gradient at a flow rate of 0.7 mL/min was used. Initial LC conditions comprised of 95% solvent A (0.1% formic acid in water) and 5% solvent B (0.1% formic acid in acetonitrile). This was ramped to 95% solvent B at 1.2 minutes, held for 0.4 minutes and then immediately returned to initial conditions. Sample analysis was by electrospray ionisation combined with multiple reaction monitoring in positive ion mode. The ionspray voltage was 5500V.

[2] = Protein binding in human plasma by equilibrium dialysis; format: in vitro ADME
Procedure: (§1) Section S5: In vitro and in vivo studies
(§2) These studies were performed by Contract Research Organisation (CRO) Pharmaron. The methodology provided within the ESI is published within the express permission of this organisation.
(§3) The percentage of a compound recovered during the analysis process should be 100 %; any deviation from this value indicates experimental limitations such as unintended potential non-specific binding events to experimental equipment, solubility issues, etc.
In vitro Absorption, Distribution and Metabolism studies methods:
Protein Binding measurements in human plasma by using equilibrium dialysis:
The fraction unbound in human plasma (P-KB, Ltd People’s hospital of Shandong) was measured using 96-well Equilibrium Dialysis Plate (HTDialysis LLC, Gales Ferry, CT). Human plasma containing 5 µM test compound was dialysed against dialysis buffer (PBS, pH 7.4) with initial samples taken to allow for assessment of plasma stability and recovery before the plate was incubated for 6 hours at 37°C at 5%
CO2. Samples were removed at 6 hours, and all samples were matrix matched and quenched with acetonitrile containing internal standard. Samples were centrifuged at 3,220g for 30 minutes to precipitate protein and enable sampling of supernatant prior to appropr iate dilution for liquid chromatography mass -spectrometry (LC -MS/MS) analysis.
Samples were analysed using a Shimadzu Nexera LC Binary Gradient LC -30AD (Shimadzu Inc, Kyoto), coupled to a Sciex 6500+ (AB Inc., Illinois). Separation was achieved using a XSelect HSS T3 (2.5µm, 2.1 x 50 mm) (Waters Ltd., Wilmslow) column at a temperature of 40°C and a binary mobile phase gradient at a flow rate of 0.8 mL/min. Initial LC conditions comprised of 95% solvent A (0.1% formic acid in water), 5% solvent B (0.1% formic acid in acetonitrile); this was ramped to 98% B at 0.5 min, held for 0.4 min and then immediately returned to initial conditions. Sample analysis was by electrospray ionisation in combined with multiple reaction monitoring in positive ionisation mode. The ionisation […]

[3] = Metabolic stability in liver microsomes; format: in vitro ADME, rat
Procedure: as §1, §2, §3
In vitro Absorption, Distribution and Metabolism studies methods: […]
The ionisation
Kinetic Solubility Determination in PBS pH 7.4:
The stock solutions of test and control compounds were prepared in DMSO at 10 mM. From this a 300 µM solution was prepared in duplicate in 100 mM Phosphate Buffered Saline (PBS, pH 7.4 ± 0.1). These solutions were then shaken at 1100rpm for 2 hours at 25°C. […]
Metabolic Stability in Rat, Mouse and Human Liver Microsomes :
The metabolic stability of compounds at a concentration of 1 µM, in rat, mouse and human liver microsomes (BD Gentest, Franklin Lakes NJ) was measured following incubation with hepatic microsomes (0.5 mg of protein / mL) in the presence and absence of cofa ctor (NADPH) at 37 °C.
Aliquots of each incubation were removed at 0.5, 5, 15, 30 and 60 minutes. The reaction was stopped by the addition of cold acetonitrile containing analytical internal standard (IS). […]

- efflux ratio at 2 h, 5 µM ([1]; Caco-2, pH 7.4): > 73.9
- recovery at 2 h, 5 µM ([1]; read-out: % Recovery (A-B)): < 98.4%
- recovery at 2 h, 5 µM ([1]; read-out: % Recovery (B-A)): 82.6%
- Papp A→B at 2 h, 5 µM ([1]; Caco-2, pH 7.4, apical to basolateral, 5 µM, 2 hours): < 0.06 ×10⁻⁶ cm/s
- Papp B→A at 2 h, 5 µM ([1]; Caco-2, pH 7.4, basolateral to apical, 5 µM, 2 hours): 4.24 ×10⁻⁶ cm/s
- % Stability ([2]; human plasma, 6 hours): 99.5%
- recovery at 6 h, 5 µM ([2]; human, plasma, pH 7.4, SSA recovered from the assay after 6 hours): 102%
- fraction unbound at 6 h, 5 µM ([2]; pH 7.4, human plasma proteins, 5 µM, 6 hours incubation at 37 °C, read-out: % Bound (converted)): 0.076
- half-life at 1 µM ([3]; liver microsomes, rat microsomes, 1 µM, read-out: In vitro T1/2): > 3.08 h
- Hepatic Extraction Ratio (ER) ([3]; rat): < 0.21
SMILES: O=C(O)CNc1c(Nc2ccc(C(F)(F)F)cc2)c(=O)c1=O [SSA 5]
